Tests used:
[1] = Indirect calorimetry (energy expenditure, respiratory quotient) in Wistar rats; assay type: in vivo; settings: low dosage 2.5 μg/100 g BW
Text: Energy expenditure as well as the nature of substrate oxidized (carbohydrates or lipids) were investigated by indirect calorimetry. This principle is based on the determinations of CO2, release (VCO2) and O2 consumption (VO2) by each animal. It assumes that O2 is entirely involved in substrate oxidation in the respiratory chain (leading to water production) while CO2 release is related to substrate decarboxylation (in the Kreb's cycle). These measurements allow assessing energy expenditure (EE) and respiratory quotient ([…], RQ). EE represent the absolute energy dissipation during rest and activity. RQ is a relative measurement indicating the ratio of carbohydrate versus lipid involved in oxidative pathway. A ratio of 1.0 indicates exclusive carbohydrate oxidation while a ratio of 0.7 indicates exclusive lipid oxidation. Each value between these two extreme values indicates the relative proportion of each substrate (of note protein oxidation was not evaluated). As an example, RQ approaches 0.7 during fasting, indicating lipid oxidation, conversely after feeding RQ increases close to 1 indicating carbohydrate oxidation resulting from food intake and blood insulin rise. Likewise, animals fed high-carbohydrate diets have higher RQs than those fed high-fat diets.
The indirect calorimetry system (Panlab, Barcelona, Spain) consists of cages, pumps, flow controllers, valves, and analyzers. […]

[2] = Body weight, adipose and lean tissue weight and core temperature in ZDF rats; assay type: in vivo, Zucker Diabetic fatty (ZDF) rats; settings: high dose 25 μg/100 g BW
Method: Adult male rat bred in the animal room facilities of Laboratory of Fundamental and Applied. Bioenergetics (Wistar strain) or purchased from Charles-River Laboratories, Domaine des oncins, L'ARBRESLE France [(genetically obese normoglycemic (Zucker or Fa/Fa) or diabetic (ZDF)] were caged individually in stainless steel hanging cages and maintained in a 22° C., 50±10% relative humidity and 12 h:12 h light:dark environment. All animals were fed ad libitum with a standard rat chow (Safe A04, Villemoisson, France) and tap water. Body mass and food intake were recorded twice/thrice a week and fresh food was provided, at the same time to ensure minimal disturbance to the animals' food, behavior.
Eight-week old rats (300 g±10 g) were anesthetized by simultaneous intraperitoneal injection of diazepam 4 mg/kg and ketamine 100 mg/kg. In order to maintain body temperature during the surgery (10 min), animals were placed on a warm blanket. After interscapular shaving, a small incision of 0.5 cm of the skin allows the subcutaneous implantation of a small pellet (containing rT3 or 3′,3-T2) with a 10-gauge precision trochar. The pellets, manufactured by Innovative Research of America (Sarasota, Fla., USA) are constituted of a biodegradable matrix that effectively and continuously release the active product in the animal.
3-5 diiodothyronine (3-5 T2) or 3-3′diiodothyronine (3-3′ T2) were used at different doses (5, 0.5, or 0.1 mg/pellet) were implanted in order to provide a continuous and constant drug delivery over 60 days (which represents 25 μg, 2.5 μg or 0.5 μg/day/100 g BW).

liver mitochondria = assay: Oxidative phosphorylation efficiency (ATP/O) in liver mitochondria of treated Wistar rats; assay type: in vivo; settings: 3 weeks continuous subcutaneous 250 μg/kg, fatty acids (palmitoyl-, octanoyl-) and succinate as substrates
Method: Effect of 3,5-T2 on oxidative phosphorylation efficiency investigated in liver mitochondria of Wistar rats isolated after 3 weeks of continuous treatment administered subcutaneously (250 μg/kg).
FIGS. 20A, 20B, 20C and 20D represent the ratio between ATP synthesis (nmol/min/g prot) and liver mitochondrial oxygen consumption (nmol/min/g prot) (P/O) as a function of liver mitochondrial oxygen consumption.
All measurements were performed using mitochondria (1.0 mg mitochondrial protein/ml) incubated with various substrates: • GM: glutamate/malate (5 mM/2.5 mM) • Palm: palmitoyl carnitine (55 μM) • Octa: octanoyl carnitine (100 μM) and • Succ+Rot: succinate/rotenone (5 mM/5 μM)
ATP/O ratios with 5 mM glutamate/2.5 mM malate/5 mM succinate or octanoyl-carnitine (100 μM) as respiratory substrates were determined from the ATP synthesis rate (JATP) versus respiratory rate JO2 with an ADP regenerating system based, on hexokinase (EC 2.7.1.1) plus glucose. JATP and JO2 were measured as described above in a medium containing 125 mM KCl, 1 mM EGTA, 5 mM Tris-Pi, 20 mM Tris-HCl, 0.1% fat free BSA (pH 7.2). JATP was determined from glucose 6-phosphate formation in presence of 20 mM glucose, 1 mM MgCl2, and 125 μM ATP. JO2 and JATP were modulated by addition of increasing concentrations of hexokinase (Nogueira et al, J Bioenerg Biomemb., 34:55-66, 2002).

N[C@@H](Cc1cc(I)c(Oc2ccc(O)cc2)c(I)c1)C(=O)O [3,5-T2, 3,5-diiodothyronine]
Respiratory quotient (RQ) vs placebo [1]: lower than RQ with placebo treatment during the day and the first part of the night | Fat mass gain vs placebo ([2]; 4 weeks): less | Lean body mass increase vs placebo ([2]; 4 weeks): higher | Core temperature vs placebo ([2]; 15 days): higher as compared to placebo | Efficiency of oxidative phosphorylation (ATP/oxygen ratio) (liver mitochondria): lowers the yield of ATP synthesis

From US20110028554A1, “PHARMACEUTICAL COMPOSITIONS COMPRISING DIIODOTHYRONINE AND THEIR THERAPEUTIC USE” (UNIVERSITE JOSEPH FOURIER, priority 2007, published 2011)
